Test results from US20220153746A1, “NITROGEN OXIDE-DONATING PDE-5 AND/OR PDE-6 INHIBITOR COMPOUNDS, AND USES THEREOF” (ILDONG PHARMACEUTICAL CO., LTD., priority 2020, published 2022).
Read-outs that look alike come from different tables or passages of the source.

Test: PK Phase (Group 2): plasma concentrations and pharmacokinetics of Compound 18 and its metabolite Compound 4 after once daily ocular instillation of Compound 18 nanosuspension for 7 days
Type: in vivo, New Zealand white rabbits
Settings: male, New Zealand white, rabbit, plasma; for concentration at 8 h / concentration at 24 h: 0.821 mg/kg/day; for Cmax / Tmax / AUC(0-t): topical or ocular, 0.8 mg/kg; for AUC(0-t): read-out: AUC0-24
From the text: This example illustrates the procedures and results for the levels of Compound 18 and its metabolite Compound 4 in plasma and ocular tissues of normotensive rabbits following ocular instillation of Compound 18 once daily for 7 consecutive days.
Twenty five (25) male New Zealand white rabbits were divided into 5 groups of varying amounts of animals per group.
The Test article, Compound 18 was formulated as a 2% nanosuspension in DI water containing 0.2% PS80 (polyoxyethylenesorbitan, monooleate (Tween 80)) and 0.4% HPMC (hydroxypropylmethylcellulose) at pH 6.77. Referred to herein as “Compound 18 nanosuspension.”
The study consisted of three groups (Groups 1-3) of 19 male rabbits (NZW) that underwent once daily morning ocular installation (1 eyedrop) for 7 consecutive days (Day 0-6). Groups 4-5 each consisted of 3 male rabbits (NZW) that were not dosed.
Blood samples (1 mL) were collected from the jugular vein at the intervals set out below for each group. The samples were then inverted several times following collection and held on wet ice until centrifuged. Samples were centrifuged within 60 minutes of collection under refrigeration (set at 5° C. for 10 minutes at 2000 g. […]
Plasma and tissue samples from treated animals (Groups 1-3) were analyzed for Compound 18 and its metabolite Compound 4 concentrations by LC-MS/MS.
Pharmacokinetic analysis was conducted using WinNonlin Version 6.2.1 (Pharsight, Mountain View, Calif.), operating as a validated software system. Noncompartmental analysis was conducted using the extravascular administration model for ocular instillation dosing.
The peak plasma concentration, time to achieve peak plasma concentration, half-life, and area under the plasma concentration-time curve (Cmax, Tmax, T1/2, and AUC) were calculated from the PK phase individual animal plasma concentrations for each sampling time/dose group for Compound 18 and its metabolite Compound 4.
BA Assay: Quantitation Range 0.05 to 100 ng/mL for Compound 18, 0.15 to 100 ng/mL for Compound 4.
Plasma calibration standards (PLSTD-A) with Compound 18 concentrations ranging from 0.0500 to 100 ng/mL were prepared by spiking control rabbit plasma with appropriate calibration curve spiking solutions (SS-A). PLQC-A samples with concentrations of 0.150, 5.00, 50.0, and 80.0 ng/mL were prepared by spiking control rabbit plasma with appropriate SS-A-QC spiking solutions.
Plasma calibration standards (PLSTD-B) with Compound 4 concentrations ranging from 0.150 to 100 ng/mL were prepared by spiking control rabbit plasma with appropriate calibration curve spiking solutions (SS-B). PLQC-B samples with concentrations of 0.450, 5.00, 50.0, and 80.0 ng/mL were prepared by spiking control rabbit plasma with appropriate SS-B-QC spiking solutions. PLQC-B-Dil samples at 800 ng/mL were prepared by spiking control rabbit plasma with the SS-B-QC-Dil spiking solution at 16,000 ng/mL, and then diluted 20× with control rabbit plasma prior to extraction.
1. Thaw plasma standards, plasma QC samples, ocular tissue QC samples, incurred plasma samples and ocular tissue samples (AH/VH) (if applicable) on wet ice. Control plasma can be thawed in tepid water. Vortex before taking aliquots.
2. Pipet 50 μL of water for Reagent Blank, 50 μL of control plasma for Double Blank and Blank, 50 μL of pre-spiked plasma for Standards and QC samples, 50 μL of incurred plasma samples (if applicable) into a 96 well plate.
5. Add 200 μL of working internal standard (WIS) solution to all remaining samples.
6. Seal the plate and vortex for approximately 5 minutes. Centrifuge the plate at 3500 rpm for 10 minutes at ˜4° C.
7. Transfer ˜200 μL of each sample supernatant into the appropriate wells of a 96 well plate. Submit for LC MS/MS analysis.
A total of 25 rabbits were used for this study, including 19 treated rabbits and 6 control rabbits. […]

[1] = other: ocular instillation (eye drop), Mean of 4 animals, BQL set to 0, read-out: Day 7 Compound 18 Plasma Concentration
[2] = other: ocular instillation (eye drop), animal 207666, read-out: Day 7 Compound 18 Plasma Concentration
[3] = other: ocular instillation, 0.8 mg/kg/day, Mean of 4 animals, BQL set to 0, read-out: Day 1 Compound 18 Plasma Concentration
[4] = other: ocular instillation, 0.8 mg/kg/day, animal 207666, read-out: Day 1 Compound 18 Plasma Concentration
[5] = other: ocular instillation, 0.8 mg/kg/day, animal 207667, read-out: Day 1 Compound 18 Plasma Concentration
[6] = Day 1, Compound 18 0.8 mg/kg ocular instillation, Mean, n=4
[7] = Day 1, Compound 18 0.8 mg/kg ocular instillation, animal 207664
[8] = Day 1, Compound 18 0.8 mg/kg ocular instillation, animal 207665
[9] = Day 1, Compound 18 0.8 mg/kg ocular instillation, animal 207666
[10] = Day 1, Compound 18 0.8 mg/kg ocular instillation, animal 207667
[11] = Day 7, Compound 18 0.8 mg/kg ocular instillation, Mean, n=4
[12] = Day 7, Compound 18 0.8 mg/kg ocular instillation, animal 207664
[13] = Day 7, Compound 18 0.8 mg/kg ocular instillation, animal 207665
[14] = Day 7, Compound 18 0.8 mg/kg ocular instillation, animal 207666
[15] = Day 7, Compound 18 0.8 mg/kg ocular instillation, animal 207667

Q: Which results are given for `CCCc1nn(C)c2c(=O)[nH]c(-c3cc(S(=O)(=O)N4CC(CCCO[N+](=O)[O-])C4)ccc3OCC)nc12` [Compound 18, 3-(1-((4-ethoxy-3-(1-methyl-7-oxo-3-propyl-6,7-dihydro-1H-pyrazolo[4,3-d]pyrimidin-5-yl)phenyl)sulfonyl)azetidin-3-yl)propyl nitrate]?
A: concentration at 8 h [1]: 0.0279 ng/mL; concentration at 8 h (other: ocular instillation (eye drop), animal 207665, read-out: Day 7 Compound 18 Plasma Concentration): 0.0505 ng/mL; concentration at 8 h [2]: 0.0611 ng/mL; concentration at 24 h (other: ocular instillation (eye drop), Mean of 4 animals, BQL set to 0, read-out: Day 1 Compound 18 Plasma Concentration): 0.0171 ng/mL; concentration at 24 h [1]: 0.0401 ng/mL; concentration at 24 h (other: ocular instillation (eye drop), animal 207666, read-out: Day 1 Compound 18 Plasma Concentration): 0.0682 ng/mL; concentration at 24 h [2]: 0.0989 ng/mL; concentration at 24 h (other: ocular instillation (eye drop), animal 207667, read-out: Day 7 Compound 18 Plasma Concentration): 0.0614 ng/mL; concentration at 0.5 h (other: ocular instillation (eye drop), 2 mg/day, animal 207664, read-out: Day 1 Compound 18 Plasma Concentration): 0.0863 ng/mL; concentration at 0.5 h [3]: 0.161 ng/mL; concentration at 0.5 h (other: ocular instillation, 0.8 mg/kg/day, animal 207665, read-out: Day 1 Compound 18 Plasma Concentration): 0.0721 ng/mL; concentration at 0.5 h [4]: 0.313 ng/mL; concentration at 0.5 h [5]: 0.171 ng/mL; concentration at 1 h [3]: 0.0601 ng/mL; concentration at 1 h [4]: 0.183 ng/mL; concentration at 1 h [5]: 0.0575 ng/mL; Cmax [6]: 0.161 ± 0.111 ng/mL; Tmax [6]: 30 min; AUC(0-t) [6]: 0.311 ± 0.488 ng·h/mL; Cmax [7]: 0.0863 ng/mL; Tmax [7]: 30 min; AUC(0-t) [7]: 0.0216 ng·h/mL; Cmax [8]: 0.0721 ng/mL; Tmax [8]: 30 min; AUC(0-t) [8]: 0.018 ng·h/mL; Cmax [9]: 0.313 ng/mL; Tmax [9]: 30 min; AUC(0-t) [9]: 1.04 ng·h/mL; Cmax [10]: 0.171 ng/mL; Tmax [10]: 30 min; AUC(0-t) [10]: 0.17 ng·h/mL; Cmax [11]: 0.17 ± 0.105 ng/mL; Tmax [11]: 156 ± 216 min; AUC(0-t) [11]: 0.754 ± 0.794 ng·h/mL; Cmax [12]: 0.306 ng/mL; Tmax [12]: 60 min; AUC(0-t) [12]: 0.372 ng·h/mL; Cmax [13]: 0.0505 ng/mL; Tmax [13]: 480 min; AUC(0-t) [13]: 0.101 ng·h/mL; Cmax [14]: 0.163 ng/mL; Tmax [14]: 30 min; AUC(0-t) [14]: 1.9 ng·h/mL; Cmax [15]: 0.161 ng/mL; Tmax [15]: 60 min; AUC(0-t) [15]: 0.644 ng·h/mL
